The supplement of paper PMC8617591

What was measured:
[1] = system: Mycobacterium tuberculosis Erdman (autoluminescent); experiment: AUC25, normalised area under dose response up to IC25 (fraction (0-1)); higher = more potent at low dose
Procedure: (§1)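 DiaMOND dose responses (10 doses, 1.5- or 2-fold spacing, equipotent around IC90) of autoluminescent M. tuberculosis Erdman in 8 in vitro models. Read-out is OD600, or luminescence for the intracellular (J774) and dormancy models, background-subtracted and normalised to untreated wells. A 3-parameter Hill fit gives Einf and AUC25 (area to IC25 normalised by IC25); GRinf comes from a Hill fit of the Hafner normalised growth rate. Biological replicates passing QC are averaged. Single drugs only.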

[2] = system: Mycobacterium tuberculosis Erdman (autoluminescent); experiment: Einf, fitted maximum growth inhibition (fraction); higher = stronger maximal inhibition
Procedure: as §1

[3] = system: Mycobacterium tuberculosis Erdman (autoluminescent); experiment: GRinf, maximum normalised growth rate inhibition (unitless (-1 to 1)); higher = less effect (negative = killing)
Procedure: as §1

[4] = system: Mycobacterium tuberculosis Erdman (autoluminescent); experiment: FIC50 (Loewe) at 50% inhibition (log2); higher = more antagonistic
Procedure: (§2)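 DiaMOND equipotent two-drug combination dose responses against autoluminescent M. tuberculosis Erdman in 8 in vitro models. Read-out is OD600, or luminescence for the intracellular and dormancy models, normalised to untreated wells. Hill-fit Einf, AUC25 and GRinf are potency metrics; FIC50 and FIC90 are Loewe-additivity fractional inhibitory concentrations, given as log2 (negative = synergy). Replicates are averaged.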

[5] = system: Mycobacterium tuberculosis Erdman (autoluminescent); experiment: FIC90 (Loewe) at 90% inhibition (log2); higher = more antagonistic
Procedure: as §2

[6] = system: Mycobacterium tuberculosis Erdman (autoluminescent); experiment: AUC25, normalised area under dose response up to IC25 (fraction (0-1)); higher = more potent at low dose; remark: listed apart in the source
Procedure: as §2

[7] = system: Mycobacterium tuberculosis Erdman (autoluminescent); experiment: Einf, fitted maximum growth inhibition of combination (fraction); higher = stronger maximal inhibition
Procedure: as §2

[8] = system: Mycobacterium tuberculosis Erdman (autoluminescent); experiment: GRinf, maximum normalised growth rate inhibition (unitless (-1 to 1)); higher = less effect (negative = killing); remark: listed apart in the source
Procedure: as §2

CO[C@H]1/C=C/O[C@@]2(C)Oc3c(C)c(O)c4c(O)c(c(/C=N/N5CCN(C)CC5)c(O)c4c3C2=O)NC(=O)/C(C)=C\C=C\[C@H](C)[C@H](O)[C@@H](C)[C@@H](O)[C@@H](C)[C@H](OC(C)=O)[C@@H]1C [rifampicin]
Settings	AUC25, [1]	Einf, [2]	GRinf, [3]
in vitro model: acidic pH 5.7, time point: constant (~7 days, model-specific)	0.0889	0.838	-0.0959
in vitro model: acidic pH 5.7, time point: terminal (~4-5 doublings, model-specific)	0.0838	0.98	-0.261
in vitro model: intracellular J774, time point: constant = terminal	–	0.971	-0.261

Settings	AUC25, [1]	Einf, [2]	GRinf, [3]
in vitro model: butyrate, time point: constant (~7 days, model-specific)	0.112	0.892	0.0824
in vitro model: butyrate, time point: terminal (~4-5 doublings, model-specific)	0.1	0.956	0.0686
in vitro model: cholesterol 0.05 mM, time point: constant (~7 days, model-specific)	0.093	0.503	0.296
in vitro model: cholesterol 0.05 mM, time point: terminal (~4-5 doublings, model-specific)	0.0796	0.855	-0.0493
in vitro model: cholesterol-high 0.2 mM, time point: constant (~7 days, model-specific)	0.0905	0.927	-0.416
in vitro model: cholesterol-high 0.2 mM, time point: terminal (~4-5 doublings, model-specific)	0.0772	0.999	-0.773
in vitro model: dormancy (butyrate + nitrate, low O2), time point: constant (~7 days, model-specific)	0.0684	0.901	0.176
in vitro model: dormancy (butyrate + nitrate, low O2), time point: terminal (~4-5 doublings, model-specific)	0.0437	0.978	-0.0601
in vitro model: standard 7H9 glycerol, time point: constant = terminal	0.0814	0.877	0.161
in vitro model: valerate, time point: constant (~7 days, model-specific)	0.0576	0.86	0.0731
in vitro model: valerate, time point: terminal (~4-5 doublings, model-specific)	0.0385	0.943	0.0202

CO[C@H]1/C=C/O[C@@]2(C)Oc3c(C)c(O)c4c(O)c(c(/C=N/N5CCN(C6CCCC6)CC5)c(O)c4c3C2=O)NC(=O)/C(C)=C\C=C\[C@H](C)[C@H](O)[C@@H](C)[C@@H](O)[C@@H](C)[C@H](OC(C)=O)[C@@H]1C [rifapentine]
Settings	AUC25, [1]	Einf, [2]	GRinf, [3]
in vitro model: acidic pH 5.7, time point: constant (~7 days, model-specific)	0.0584	0.831	-0.0781
in vitro model: acidic pH 5.7, time point: terminal (~4-5 doublings, model-specific)	0.0625	0.974	-0.181
in vitro model: intracellular J774, time point: constant = terminal	–	0.973	-0.197

Settings	AUC25, [1]	Einf, [2]	GRinf, [3]
in vitro model: butyrate, time point: constant (~7 days, model-specific)	0.0929	0.891	0.117
in vitro model: butyrate, time point: terminal (~4-5 doublings, model-specific)	0.0749	0.942	0.0762
in vitro model: cholesterol 0.05 mM, time point: constant (~7 days, model-specific)	0.104	0.553	0.164
in vitro model: cholesterol 0.05 mM, time point: terminal (~4-5 doublings, model-specific)	0.065	0.861	-0.00856
in vitro model: cholesterol-high 0.2 mM, time point: constant (~7 days, model-specific)	0.0607	0.877	-0.186
in vitro model: cholesterol-high 0.2 mM, time point: terminal (~4-5 doublings, model-specific)	0.053	1	-0.735
in vitro model: dormancy (butyrate + nitrate, low O2), time point: constant (~7 days, model-specific)	0.0644	0.908	0.218
in vitro model: dormancy (butyrate + nitrate, low O2), time point: terminal (~4-5 doublings, model-specific)	0.0566	0.989	-0.11
in vitro model: standard 7H9 glycerol, time point: constant = terminal	0.0489	0.894	0.0516
in vitro model: valerate, time point: constant (~7 days, model-specific)	0.0524	0.855	0.056
in vitro model: valerate, time point: terminal (~4-5 doublings, model-specific)	0.0266	0.937	0.0374

CO[C@H]1/C=C/O[C@@]2(C)Oc3c(C)c(O)c4c(O)c(c(/C=N/N5CCN(C6CCCC6)CC5)c(O)c4c3C2=O)NC(=O)/C(C)=C\C=C\[C@H](C)[C@H](O)[C@@H](C)[C@@H](O)[C@@H](C)[C@H](OC(C)=O)[C@@H]1C [rifapentine] + CO[C@H]1/C=C/O[C@@]2(C)Oc3c(C)c(O)c4c(O)c(c(/C=N/N5CCN(C)CC5)c(O)c4c3C2=O)NC(=O)/C(C)=C\C=C\[C@H](C)[C@H](O)[C@@H](C)[C@@H](O)[C@@H](C)[C@H](OC(C)=O)[C@@H]1C [rifampicin]
Settings	AUC25, [6]	Einf, [7]	FIC50, [4]	FIC90, [5]	GRinf, [8]
in vitro model: acidic pH 5.7, time point: constant (~7 days, model-specific)	0.0835	0.837	0.179	–	-0.028
in vitro model: acidic pH 5.7, time point: terminal (~4-5 doublings, model-specific)	0.0696	0.967	0.0519	-0.186	-0.182
in vitro model: intracellular J774, time point: constant = terminal	–	0.934	–	-0.3	-0.195

Settings	AUC25, [6]	Einf, [7]	FIC50, [4]	FIC90, [5]	GRinf, [8]
in vitro model: butyrate, time point: constant (~7 days, model-specific)	0.101	0.887	0.0385	–	0.0983
in vitro model: butyrate, time point: terminal (~4-5 doublings, model-specific)	0.0929	0.958	-0.077	0.00202	0.0599
in vitro model: cholesterol 0.05 mM, time point: constant (~7 days, model-specific)	0.125	0.57	-0.0632	–	0.181
in vitro model: cholesterol 0.05 mM, time point: terminal (~4-5 doublings, model-specific)	0.085	0.883	-0.246	0.16	-0.0494
in vitro model: cholesterol-high 0.2 mM, time point: constant (~7 days, model-specific)	0.0915	0.921	-0.073	0.413	-0.231
in vitro model: cholesterol-high 0.2 mM, time point: terminal (~4-5 doublings, model-specific)	0.0669	0.999	0.0935	-0.0799	-0.64
in vitro model: dormancy (butyrate + nitrate, low O2), time point: constant (~7 days, model-specific)	0.062	0.902	0.0837	-0.356	0.162
in vitro model: dormancy (butyrate + nitrate, low O2), time point: terminal (~4-5 doublings, model-specific)	0.0354	0.979	0.0345	-0.0772	-0.0822
in vitro model: standard 7H9 glycerol, time point: constant = terminal	0.0721	0.907	0.198	0.54	0.101
in vitro model: valerate, time point: constant (~7 days, model-specific)	0.0488	0.815	0.231	–	0.136
in vitro model: valerate, time point: terminal (~4-5 doublings, model-specific)	0.0288	0.921	-0.0221	-0.019	0.0885
